Measured values taken from patent publication US8343964B2, “Indolic derivatives, their preparation processes and their uses in particular as antibacterials” (Universite Joseph Fourier, priority 2007, dated 2013).
Converted amounts (≈) assume the structure as drawn. Like-named read-outs stand apart in the source and are kept apart here.

Columns and labels:
[1] = test system: S. aureus ITS-1199B (overexpression of the efflux pump NorA); format: cell-based, Staphylococcus aureus; settings: resistant strain R NorA; for MIC (μg/ml) of compound in the presence of ciprofloxacin at 8 μg/ml (c/2): ciprofloxacin 8 μg/ml (c/2); for MIC (μg/ml) of compound in the presence of ciprofloxacin at 4 μg/ml (c/4): ciprofloxacin 4 μg/ml (c/4)
Protocol: (§1) The two strains used are Staphylococcus aureus (ATCC 25923, sensitive Gram-positive strain) denoted S, and S. aureus ITS-1199 (without efflux), as well as its derivative S. aureus ITS-1199B (Kaatz, G. W., Seo, S. M., Antimicrob. Agents Chemother., 1995, 39, 2650-2655) having a resistance to the fluoroquinolones due to the overexpression of the efflux pump NorA and denoted R NorA. The bacteria are cultured at 37° C. in Mueller-Hinton (MH, Bio Rad) or Luria-Bertani (LB, Difco) Medium.
The experiences are carried out as above, but using the resistant strain, and looking at the effect of the mixture of the molecule to be tested and the antibiotic to which the bacterium is resistant. Thus, the method of a series of dilutions in Mueller-Hinton medium is used, also starting from a molecule concentration of 100 or 128 μg/ml.

[2] = test system: KB (human mouth carcinoma); experiment: In vitro cytotoxicity on KB cells; format: cell-based; settings: concentration of 10^−5 M
Protocol: (§2) The in vitro cytotoxicity results, measured at a concentration of 10^−5 M, are described below. The cytotoxicity was measured on 5 cell lines—KB (human mouth carcinoma), MCF7 (breast carcinoma) and MCF7R (resistant strain), Vero (monkey kidney) and HCT116 (human colon tumour).

[3] = test system: Staphylococcus aureus (ATCC 25923, sensitive Gram-positive strain); experiment: Determination of the antibacterial activity: MIC in liquid Mueller-Hinton medium (intrinsic antibacterial activity); format: cell-based
Protocol: as §1
The experiments described hereafter are carried out following the recommendations of the Comité de l'Antibiogramme de la Société Française de Microbiologic (http://www.sfm.asso.fr/nouv/general.php See also Courvalin, P., Goldstein, F., Philippon, A., Sirot J. L'antibiogramme, 1985, M.P.C.-Videom editor). The antibacterial activity of the molecules was determined in liquid medium using a Biomek 2000 robot (Beckman) and micro-titration plates. The final volume in each well is 200 μl. A maximum volume of 5 μl of a solution of the molecule in DMSO is added to each well containing 10^6 CFU/ml (Colony Forming Units) of bacteria in MH medium. The final concentration of the molecule to be tested must be 100 or 128 μg/ml. […] Ampicillin is used as a positive control and the same volume of DMSO as that used to introduce the molecule (generally 2 to 5 μl) as a negative control.
The experiments are repeated three times.

[4] = In vitro cytotoxicity on Vero cells; format: cell-based; settings: monkey, concentration of 10^−5 M, read-out: Average cytotoxicity (% inhibition), Vero cells
Protocol: as §2

[5] = In vitro cytotoxicity on HCT116 cells; format: cell-based; settings: human, concentration of 10^−5 M, read-out: Average cytotoxicity (% inhibition), HCT116 cells
Protocol: as §2

[6] = In vitro cytotoxicity on MCF7 cells; format: cell-based; settings: human, MCF7 cells (breast carcinoma); concentration of 10^−5 M; read-out: Average cytotoxicity (% inhibition), MCF7 cells
Protocol: as §2

in vitro = format: cell-based; settings: human
Protocol: as §2

[7] = HCT116 cells (human colon tumour)
[8] = ATCC25923, 18 h, read-out: MIC / Antibacterial Activity (AA)
[9] = ATCC25923, compound alone, lowest concentration allowing no growth after 18 hours at 37° C., 10^6 CFU/ml, read-out: MIC / Antibacterial Activity (AA)

Row | SMILES | MIC (μg/ml) of compound in the presence of ciprofloxacin at 8 μg/ml (c/2) [1] [µg/mL] | Average cytotoxicity (% inhibition), KB cells [2] [%] | cytotoxicity ([4]; Vero cells (monkey kidney)) [%] | cytotoxicity [5, 7] [%] | MIC (μg/ml) of compound in the presence of ciprofloxacin at 4 μg/ml (c/4) [1] [µg/mL] | other results
1 | COc1ccc2[nH]cc(C(N)CNC(=O)OC(C)(C)C)c2c1 (centres unmarked) [(24), 1-amino-[2-N′-(tert-butoxycarbonyl)amino]-1-(5′-methoxy-3′-indolyl) ethane] | 4 | 2 | 12 | 13 | – | MIC ([3]; ATCC25923): ≤ 10 µg/mL
2 | CC(C)(C)OC(=O)NCC(NO)c1c[nH]c2cc(Br)ccc12 (centres unmarked) [(22)] | – | 0 | 22 | 37 | – | MIC [3, 8]: 50 µg/mL (≈ 135 µM)
3 | CC(c1c[nH]c2ccc(Br)cc12)N(O)Cc1ccccc1 (centres unmarked) [Compound (1)] | – | 50 | 36 | 28 | – | MIC [3, 9]: 25 µg/mL (≈ 72.4 µM)
4 | CC(C)(C)OC(=O)NCC(c1c[nH]c2ccc(Br)cc12)[N+]([O-])=Cc1ccccc1 (centres unmarked) [(20 bis)] | 1 | – | – | – | 1 | –
5 | COc1ccc2[nH]cc(C(C)N(O)Cc3ccccc3)c2c1 (centres unmarked) [(38)] | >8 | 0 | 5 | 15 | – | –
6 | Cl.Cl.NCC(NO)c1c[nH]c2cc(Br)ccc12 (centres unmarked) [(33)] | – | 14 | – | – | – | MIC [3, 9]: 6 µg/mL; cytotoxicity [4]: 31%; cytotoxicity [5]: 37%
7 | NCC(N)c1c[nH]c2cc(Br)ccc12 (centres unmarked) [(28)] | – | – | – | – | – | MIC [3, 9]: 25 µg/mL (≈ 98.4 µM)
8 | CC(C)(C)OC(=O)NCC(c1c[nH]c2ccccc12)N(O)Cc1ccccc1 (centres unmarked) [Compound (6)] | 2 | 33.7 | 27 | 29 | 4 | cytotoxicity [6]: 13.1%; cytotoxicity (in vitro): 16%
9 | CC(NCc1ccccc1)c1c[nH]c2ccc(Br)cc12 (centres unmarked) [Compound (15)] | – | – | – | – | – | MIC [3, 8]: 25 µg/mL (≈ 75.9 µM)
10 | COc1cc(CN(O)C(CNC(=O)OC(C)(C)C)c2c[nH]c3ccc(Br)cc23)cc(OC)c1 (centres unmarked) [(10)] | – | – | – | – | 8 | –
11 | CC(C)(C)OC(=O)NCC(c1c[nH]c2ccc(Br)cc12)N(O)Cc1ccccc1 (centres unmarked) [Compound (4)] | – | – | – | – | – | MIC [3, 8]: 25 µg/mL (≈ 54.3 µM)
12 | COc1ccc(CN(O)C(CNC(=O)OC(C)(C)C)c2c[nH]c3ccc(Br)cc23)c(OC)c1 (centres unmarked) [Compound (8)] | 8 | – | – | – | 8 | –
13 | COc1ccc(CN(O)C(CC(C)C)c2c[nH]c3ccccc23)c(OC)c1 (centres unmarked) [(40)] | >8 | 13 | 32 | 46 | – | –
14 | CC(C)(C)OC(=O)NCC(NC(=O)OC(C)(C)C)c1c[nH]c2cc(Br)ccc12 (centres unmarked) [(36)] | – | – | – | – | 8 | –
15 | COc1ccc(/C=[N+](\[O-])C(CNC(=O)OC(C)(C)C)c2c[nH]c3ccc(Br)cc23)cc1 (centres unmarked) [(20)] | <3 | – | – | – | 3 | –
16 | CC(C)(C)OC(=O)NCC(N)c1c[nH]c2ccccc12 (centres unmarked) [(23)] | 4 | 2 | 11 | 5 | – | –
17 | CC(C)(C)OC(=O)NCC(c1c[nH]c2cc(Br)ccc12)N(O)Cc1ccccc1 (centres unmarked) [Compound (5)] | – | – | – | – | 2 | MIC [3, 9]: 6 µg/mL (≈ 13 µM)
18 | COc1ccc2c(C(CNC(=O)OC(C)(C)C)N(O)Cc3ccccc3)c[nH]c2c1 (centres unmarked) [Compound (50), 1-[N-benzyl-N-(hydroxy)amino]-2-[N′-(tert-butoxycarbonyl)amino]-1-(6′-methoxyindol-3′-yl)ethane] | – | – | 42 | – | – | –
19 | CC(C)(C)OC(=O)NCC(NO)c1c[nH]c2ccccc12 (centres unmarked) [(46), 1-N-(hydroxy)amino-2-[N′-(tert-butoxycarbonyl)amino]-1-(indol-3′-yl)ethane] | – | 31 | 0 | 39 | – | –
